The text below walks through data of patent US20040235922A1, “Compositions and methods for inducing adipose tissue cell death” (priority 2003, published 2004).

Entries after “also recorded” stand apart in the source; their conditions may differ.

The nature of data set [1]: 21 day oral (diet) treatment of mice: body weight, food intake, feed efficiency, body temperature, body composition by PIXImus densitometry (Example 1). It counts as in vivo. Particulars: 21 days, ICR mice. As to the method:
The effects of clenbuterol, a β2-AR agonist, and ractopamine, a β1/β2-AR agonist, on growth, adiposity and adipose tissue apoptosis in male and female mice have been tested by feeding diets containing control, 200 ppm clenbuterol, or 200 or 800 ppm ractopamine. Food intake (FI) was measured daily; body weight (BW) and temperatures (BT) were measured on days 0, 3, 7, 10, 14, 17, and 20. On day 21 mice were sacrificed, body composition was determined using PIXImus densitometry, and muscle and adipose tissues were collected. There were no treatment effects on BT, FI, BW, feed efficiency or body composition. Retroperitoneal (Rp) and epididymal/parametrial (Epi/Par) fat pad masses were reduced in both 800 ppm ractopamine (40±3 and 207±20 mg, respectively) and clenbuterol (35±7 and 211±22 mg) treated mice compared to control (66±8 and 319±30 mg, p<0.05). Brown adipose tissue (BAT) mass was greater (p<0.05) in clenbuterol treated mice compared to other treatments. Adipose tissue apoptosis (% DNA fragmentation) was increased in Epi/Par fat pads in clenbuterol (5.2+1.1%) and 800 ppm ractopamine (4.1±0.8%) treated mice compared to control (1.7+0.4%, p<0.05).
Animals: Five week old male (n=20) and female (n=20) ICR mice (Harlan Research Laboratories, Indianapolis, Ind.) were allowed to acclimate for one week prior to the experiment start date. Animals were housed singly in suspended wire cages and were provided ground rodent chow (ProLab® RMH 2500; Purina Mills, St. Louis, Mo.) and water ad libitum. Ambient room temperature was maintained and the light/dark cycle was 0600/1800 hours, respectively. Animals were cared for in accordance with the Guide for the Care and Use of Laboratory Animals (Institute of Laboratory Animal Resources Commission on Life Sciences National Research Council. Guide for the Care and Use of Laboratory Animals. National Academy of Sciences, 1996). Prior to the start of the study, animals were briefly anesthetized with isofluorane and an IPPT-200 transponder (programmable ID and temperature, BMDS, Seaford, Del.) was implanted subcutaneously between the scapulae.
Materials: Test articles included clenbuterol (Sigma Chemical Company, St. Louis, Mo., item # C5423) and ractopamine hydrochloride—Paylean® 9 (Elanco Animal Health, Indianapolis, Ind.). Clenbuterol is available as a pure product, and ractopamine is readily available as a type A medicated article. Paylean® 9 contains about 20 g ractopamine hydrochloride per kilogram in a ground corncob base. In order to achieve doses of 200 and 800 ppm it was necessary to add about […] of product per kilogram of diet. Control and clenbuterol diets were prepared with about 80 g of alphacel, which is a diluent used to mimic the effect of the corncob in the ractopamine product. The dose of clenbuterol used in this experiment was similar to those used in previous experiments with mice (Agbenyega E T, and Wareham A C. Effect of clenbuterol on skeletal muscle atrophy in mice induced by the glucocorticoid dexamethasone. Comp Biochem Physiol Comp Physiol 1992;102:141-145, Rothwell N. J., and Stock M J. Modification of body composition by clenbuterol in normal and dystrophic (mdx) mice. Biosci Rep 1985;5:755-760, Hyltander A, Svaninger G, and Lundholm K. The effect of clenbuterol on body composition in spontaneously eating tumour-bearing mice. Biosci Rep 1993;13:325-331, Hayes A, and Williams DA. Long-term clenbuterol administration alters the isometric contractile properties of skeletal muscle from normal and dystrophin-deficient mdx mice. Clin Exp Pharmacol Physiol 1994;21:757-765, Dupont-Versteegden EE. Exercise and clenbuterol as strategies to decrease the progression of muscular dystrophy in mdx mice. J Appl Physiol 1996;80:734-741).
Daily Observations: Food intake was measured daily, while body weight and body temperatures were measured on days 0, 3, 7, 10, 14, 17, and 20 at approximately the same time of day (1300 hours) during the treatment period. […]

Data set [2] is described as follows: Body composition analysis by PIXImus densitometry in WT and GDF-8 KO mice (Example 2). It counts as in vivo. Particulars: 200 ppm in diet, 21 days.
Data set [3] has as its system mouse adipocytes. Particulars: in vitro; cited from earlier work.
In data set [4] the test system is mouse adipocytes. The following applies: in vitro; cited from earlier work. This is another data set of the same source.
The subject of data set [5] is female and male WT and GDF-8 KO mice. Nature of the data set: Adipose, muscle and heart tissue weights in WT and GDF-8 KO mice (Example 2). Particulars: 200 ppm in diet, 21 days.
The mark [6] stands for this setting: WT and GDF-8 KO mice, Mean ± SEM.

As for `CC(C)(C)NCC(O)c1cc(Cl)c(N)c(Cl)c1` (stereo not shown) [Clenbuterol, clenbuterol], in data set [1] (200 ppm in diet), the “Cumulative Feed Intake” value is listed as 6.10 g, the “Densitometry Bone Mineral Content” value came out at 0.65 g, the “Densitometry Fat” value is given as 2.81 g and the “Densitometry Lean” value is on record as 26.80 g. In data set [1] (200 ppm in diet), the “Feed Efficiency” value is recorded as 14.4, the “Final Body Weight” value is 32.1 g and the “Weight Gain” value stood at 8.90 g. The “Effect on body temperature, food intake, body weight, feed efficiency, body composition” value in data set [1] (diet) is on record as “not significantly affected; also recorded: Neither clenbuterol nor ractopamine affected”. In data set [2] (setting [6]), the “% Fat” value came to 15.7 ± 1.0%, the “Bone Mineral Content” value turned out to be 0.52 ± 0.02 g, the “Bone Mineral Density” value came out at 0.06 ± 0.001 g and the Fat is given as 4.1 ± 0.2 g. Besides, the Lean in data set [2] (setting [6]) stood at 22.7 ± 1.1 g. The “Effect on BMD, BMC, area, lean weight, fat weight, or fat %” value in data set [2] (main effects) is listed as “no effect”. In the data set on mouse adipocytes [3], the “Insulin-induced lipolysis in mouse adipocytes” value is “inhibited” and the “Lipolysis in mouse adipocytes” value is “stimulated”. In addition, the “Insulin binding to mouse adipocytes” value in the data set with mouse adipocytes [4] is reported as “decreased”. For the same molecule, in data set [5], the “EPI/PAR (and RP) fat pad weights compared to control” value is recorded as “decreased; also recorded: reduced”, the “Heart weight compared to control” value is reported as “increased” and the “Weights of dissected skeletal muscles” value is given as “did not affect; also recorded: no effect”. In addition, in data set [5] (listed as clenbuterol), the “EPI/PAR (and RP) fat pad weights compared to control” value was “reduced; also recorded: smaller” and the “Heart weight compared to control” value is on record as “significantly increased”.
